# Reference: patent US7205409B2, “Pharmaceutical compositions as inhibitors of dipeptidyl peptidase-IV (DPP-IV)” (Abbott Laboratories, priority 2003, dated 2007)
# Tests used:
# [1] = Chemical Stability Assay (HPLC, phosphate buffer pH 7.4, 37° C.); type: physicochemical; settings: stability to internal cyclization, read-out: chemical stability half-life (T1/2) (converted)
# Description: For the determination of chemical stability, compounds of the present invention are assayed using the following protocol:
# A solution of each DPP-IV compound was prepared in an appropriate mobile phase. This was injected and analyzed by HPLC to identify the parent drug peak in the chromatograms. Stability solutions were prepared in 50 mM phosphate buffer pH 7.4 adjusted to μ=0.155. Samples were weighed using a Mettler-Toledo microbalance and transferred into a 20 ml glass scintillation vial or a volumetric flask. The phosphate buffer pH 7.4 was added with an EDP Plus 10 ml electronic pipette. The samples were sonicated for approximately 2 minutes and filtered using a PTFE membrane syringe filter. The filtrate was transferred to amber HPLC vials and placed in an autosampler at 37° C. The first sample was immediately injected and counted as the time zero sample. The solution concentration was measured at various timepoints using an appropriate HPLC method. After data acquisition was completed, the chromatograms were processed for each compound. The rate and half-life were determined from a plot of log10 peak area remaining/peak area at zero time vs. exposure time @37° C. using Microsoft® Excel 2000. Rates of reaction and half-lives were calculated using a pseudo-first order kinetic model.
# [2] = test system: Insulin resistant female ZDF rats; assay: acute oral glucose tolerance test (OGTT); type: in vivo, rat; settings: OGTT 2 gm/kg four hours later
# Description: Compounds of the present invention are evaluated for the ability to treat diabetes using an acute oral glucose tolerance test (OGTT) as follows: Insulin resistant female ZDF rats, 11 weeks of age, on a normal chow diet, are fasted overnight. A baseline tail snip blood sample is taken to measure glucose levels (Precision PCx glucose meter, Abbott Laboratories, Abbott Park, Ill.) at the beginning of the experiment. Immediately after this baseline sample, compounds of the present invention (or placebo) are dosed orally. Four hours later, a tail snip blood glucose measurement is taken, immediately followed by an oral glucose dose (OGTT, 2 gm/kg). The glucose excursion is followed for 2 hr with samples taken at 10, 20, 30, 60 and 120 min post OGTT. These timed glucose data are used to construct a glucose excursion curve, from which an area under the glucose curve (AUGC) is determined. Data are reported as the baseline-adjusted area under the glucose curve (deltaAUGC) for drug and control groups.
Structure (SMILES),half-life [1] [h],δ AUGC ([2]; 1.0 mg/kg oral),"δ AUGC, change versus control ([2]; 1.0 mg/kg oral) [%]",δ AUGC ([2]; 3.0 mg/kg oral),"δ AUGC, change versus control ([2]; 3.0 mg/kg oral) [%]"
C[C@H]1CC[C@@H](C(=O)N2CCC[C@H]2C#N)N1 [Comparative compound α],5.3,–,–,–,–
N#C[C@@H]1CCCN1C(=O)[C@@H]1CC[C@H](c2ccccc2)N1 [Comparative compound γ],12.2,–,–,–,–
"N#C[C@@H]1CCCN1C(=O)[C@@H]1CC[C@H](COc2ccc(C(=O)O)c3ccccc23)N1 [Example 54, (2S)-1-{(5R)-5-((4-carboxynaphthalen-1-yloxy)methyl)-L-prolyl}-pyrrolidine-2-carbonitrile]",–,"7,600 mg/mL/dL",−24,"7,300 mg/mL/dL",−27
